The source of these data is US8222416B2, “Azaindole glucokinase activators” (Hoffmann-La Roche Inc., priority 2009, dated 2012).

The target in one test is T1, Recombinant human liver GK1 (GST-GK) (Homo sapiens, UniProt P35557).
T1 construct: made in house; host or cells: E. coli
T1 sequence (P35557 1-466 isoform P35557-2): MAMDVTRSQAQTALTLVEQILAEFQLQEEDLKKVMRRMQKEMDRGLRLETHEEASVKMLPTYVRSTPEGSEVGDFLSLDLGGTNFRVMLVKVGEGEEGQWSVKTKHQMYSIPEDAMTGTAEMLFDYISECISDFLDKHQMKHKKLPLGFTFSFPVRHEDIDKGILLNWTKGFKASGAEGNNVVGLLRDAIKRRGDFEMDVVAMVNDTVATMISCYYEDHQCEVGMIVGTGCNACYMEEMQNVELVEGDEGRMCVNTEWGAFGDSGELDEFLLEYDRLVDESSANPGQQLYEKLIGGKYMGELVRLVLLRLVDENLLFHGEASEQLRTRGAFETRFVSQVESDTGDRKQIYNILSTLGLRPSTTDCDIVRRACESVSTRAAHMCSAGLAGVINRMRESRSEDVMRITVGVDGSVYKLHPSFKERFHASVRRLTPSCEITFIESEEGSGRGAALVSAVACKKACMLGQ
The test is described as follows: In vitro glucokinase activity assay (G6PDH-coupled, NADH, OD340). The conditions noted are these: at 30 μM. In kind it is biochemical. How it is done: Glucokinase In Vitro Assay Protocol: Glucokinase (GK) was assayed by coupling the production of glucose-6-phosphate to the generation of NADH with glucose-6-phosphate dehydrogenase (G6PDH, 0.75-1 kunits/mg; Boehringer Mannheim, Indianapolis, Ind.) from Leuconostoc mesenteroides as the coupling enzyme (Scheme 2).
Recombinant human liver GK1 was expressed in E. coli as a glutathione S-transferase fusion protein (GST-GK) [Liang et al, 1995] and was purified by chromatography over a glutathione-Sepharose 4B affinity column using the procedure provided by the manufacturer (Amersham Pharmacia Biotech, Piscataway, N.J.).
The assay was conducted at 30° C. in a flat bottom 96-well tissue culture plate from Costar (Cambridge, Mass.) with a final incubation volume of 120 μL. The incubation reaction contained the following: 25 mM Hepes buffer (pH 7.1), 25 mM KCl, 5 mM D-glucose, 1 mM ATP, 1.8 mM NAD, 2 mM MgCl2, 1 μM sorbitol-6-phosphate, 1 mM dithiothreitol, test drug or 10% dimethylsulfoxide, ˜7 units/ml G6PDH, and GK (see below). All organic reagents were >98% pure and were from Boehringer Mannheim with the exceptions of D-glucose and Hepes which were from Sigma Chemical Co, St Louis, Mo. Test compounds were dissolved in dimethylsulfoxide and were added to the incubation reaction minus GST-GK in a volume of 12 μL to yield a final dimethylsulfoxide concentration of 10%. This mix was pre-incubated in the temperature controlled chamber of a SPECTRAmax 250 microplate spectrophotometer (Molecular Devices Corporation, Sunnyvale, Calif.) for 10 minutes to allow temperature equilibrium and then the reaction was started by the addition of 20 μL GST-GK.
After addition of enzyme, the increase in optical density (OD) at 340 nm was monitored spectrophotometrically to determine the rate of change (OD340 per min). The GK activity (OD340/min) in control wells (10% dimethylsulfoxide minus GK activators) was compared with the activity in wells containing test GK activators, and the concentration of activator that produced a 50% increase in the activity of GK, i.e., the SC1.5, was calculated.
With `CCC(O)(CC)c1ccc(C(CC2CCCC2)c2cc3cccnc3[nH]2)cc1` (stereo not drawn) [Example 83, 3-{4-[2-Cyclopentyl-1-(1H-pyrrolo[2,3-b]pyridin-2-yl)-ethyl]-phenyl}-pentan-3-ol], the “fold activation of GK” value is on record as 1.4 fold at 30.

The test is the same for the next values; noted with them: concentration of activator that produced a 50% increase in the activity of GK; 5 mM D-glucose, 30° C.
As for `CS(=O)(=O)c1ccc(/C(=C\C2CCC2)c2cc3cc(F)cnc3[nH]2)cc1` [Example 46, 2-[(E)-2-Cyclobutyl-1-(4-methanesulfonyl-phenyl)-vinyl]-5-fluoro-1H-pyrrolo[2,3-b]pyridine], the SC1.5 came out at 0.028 µM.
The same measure, in the same setting: for `CS(=O)(=O)c1ccc(C(CC2CCC2)c2cc3cc(F)cnc3[nH]2)cc1` (stereo not drawn) [Example 47, 2-[2-Cyclobutyl-1-(4-methanesulfonyl-phenyl)-ethyl]-5-fluoro-1H-pyrrolo[2,3-b]pyridine] the value was 0.415 µM.
Still for that read-out and setting: for `CS(=O)(=O)c1ccc(C(O)(CC2CCCC2)c2cc3cc(F)cnc3[nH]2)cc1` (stereo not drawn) [Example 48, 2-Cyclopentyl-1-(5-fluoro-1H-pyrrolo[2,3-b]pyridin-2-yl)-1-(4-methanesulfonyl-phenyl)-ethanol] the value was 0.654 µM; for `N#Cc1ccc(C(CC2CCCC2)c2cc3cc(F)cnc3[nH]2)cc1` (stereo not drawn) [Example 50, 4-[2-Cyclopentyl-1-(5-fluoro-1H-pyrrolo[2,3-b]pyridin-2-yl)-ethyl]-benzonitrile], 0.603 µM.
Still for that read-out and setting: as for `CS(=O)(=O)c1ccc(C(CC2CCCC2)c2cc3cc(C#N)cnc3[nH]2)cc1` (stereo not drawn) [Example 52, 2-[2-Cyclopentyl-1-(4-methanesulfonyl-phenyl)-ethyl]-1H-pyrrolo[2,3-b]pyridin-5-carbonitrile], the figure is 0.37 µM.
With `COC(=O)c1cnc2[nH]c(C(CC3CCCC3)c3ccc(S(C)(=O)=O)cc3)cc2c1` (stereo not drawn) [Example 54, 2-[2-Cyclopentyl-1-(4-methanesulfonyl-phenyl)-ethyl]-1H-pyrrolo[2,3-b]pyridin-5-carboxylic acid methyl ester], the SC1.5 was determined as 1.2 µM.
For the compound `CC(C)(O)c1ccc(C(CC2CCCC2)c2cc3cc(C(=O)O)cnc3[nH]2)cc1F` (stereo not drawn) [Example 57, 2-{2-Cyclopentyl-1-[3-fluoro-4-(1-hydroxy-1-methyl-ethyl)-phenyl]-ethyl}-1H-pyrrolo[2,3-b]pyridin-5-carboxylic acid], the SC1.5 turned out to be 22.3 µM.
On the same count and under the same terms, for `CS(=O)(=O)c1ccc(C(CC2CCCC2)c2cc3cc(C(=O)NCCO)cnc3[nH]2)cn1` (stereo not drawn) [Example 59, 2-[2-Cyclopentyl-1-(6-methanesulfonyl-pyridin-3-yl)-ethyl]-1H-pyrrolo[2,3-b]pyridin-5-carboxylic acid(2-hydroxy-ethyl)-amide] the value was 5.5 µM; for `COc1ccc(C(CC2CCCC2)c2cc3cccnc3[nH]2)cn1` (stereo not drawn) [Example 61], 3.0 µM; for `c1cnc2[nH]c(C(CC3CCCC3)c3ccc4c(c3)OCCO4)cc2c1` (stereo not drawn) [Example 62, 2-[2-Cyclopentyl-1-(2,3-dihydro-benzo[1,4]-dioxin-6-yl)-ethyl]-1H-pyrrolo[2,3-b]pyridine], 6.0 µM.
As for `Cc1ccc(C(CC2CCCC2)c2cc3cccnc3[nH]2)cn1` (stereo not drawn) [Example 63], the SC1.5 came out at 3.5 µM.
The same measure, in the same setting: for `CC(O)c1ccc(C(CC2CCCC2)c2cc3cccnc3[nH]2)cc1` (stereo not drawn) [Example 64, 1-{4-[2-Cyclopentyl-1-(1H-pyrrolo[2,3-b]pyridin-2-yl)-ethyl]-phenyl}-ethanol] the value was 2.2 µM; for `CN(C)c1ccc(C(CC2CCCC2)c2cc3cccnc3[nH]2)cc1` (stereo not drawn) [Example 65, {4-[2-Cyclopentyl-1-(1H-pyrrolo[2,3-b]pyridin-2-yl)-ethyl]-phenyl}-dimethyl-amine], 2.8 µM; for `Cc1cc(C)cc(C(CC2CCCC2)c2cc3cccnc3[nH]2)c1` (stereo not drawn) [Example 66, 2-[2-Cyclopentyl-1-(3.5-dimethyl-phenyl)-ethyl]-1H-pyrrolo[2,3-b]pyridine], 4.2 µM.
The same measure, in the same setting: as for `FC(F)(F)c1ccc(C(CC2CCOCC2)c2cc3cccnc3[nH]2)cc1` (stereo not drawn) [Example 68, 2-[2-(Tetrahydro-pyran-4-yl)-1-(4-trifluoromethyl-phenyl)-ethyl]-1H-pyrrolo[2,3-b]pyridine], the figure is 0.888 µM.
Turning to `CS(=O)(=O)c1ccc(/C(=C\C2CCCO2)c2cc3cccnc3[nH]2)cc1` (stereo not drawn) [Example 70, (E)-2-[1-(4-Methanesulfonyl-phenyl)-2-(tetrahydro-furan-2-yl)-vinyl]-1H-pyrrolo[2,3-b]pyridine], the SC1.5 turned out to be 0.082 µM.
The same measure, in the same setting: for `CS(=O)(=O)c1ccc(C(CC2CCCO2)c2cc3cccnc3[nH]2)cc1` (stereo not drawn) [Example 71, 2-[1-(4-Methanesulfonyl-phenyl)-2-(tetrahydro-furan-2-yl)-ethyl]-1H-pyrrolo[2,3-b]pyridine] the value was 2.3 µM; for `COc1cnc2[nH]c(C(O)(CC3CCC3)c3ccc(S(C)(=O)=O)c(C(F)(F)F)c3)cc2c1` (stereo not drawn) [Example 72, 2-Cyclobutyl-1-(4-methanesulfonyl-3-trifluoromethyl-phenyl)-1-(5-methoxy-1H-pyrrolo[2,3-b]pyridin-2-yl)-ethanol], 13.3 µM.
Same read-out and setting: for `CC(C)(C)/C=C(\c1ccc(S(C)(=O)=O)cc1)c1cc2cccnc2[nH]1` [Example 73, 2-[(E)-1-(4-Methanesulfonyl-phenyl)-3,3-dimethyl-but-1-enyl]-1H-pyrrolo[2,3-b]pyridine] the value was 0.653 µM; for `CC(C)(C)CC(c1ccc(S(C)(=O)=O)cc1)c1cc2cccnc2[nH]1` (stereo not drawn) [Example 74, 2-[1-(4-Methanesulfonyl-phenyl)-3,3-dimethyl-butyl]-1H-pyrrolo[2,3-b]pyridine], 20.6 µM; for `CS(=O)(=O)Nc1ccc(C(CC2CCCC2)c2cc3cccnc3[nH]2)cc1` (stereo not drawn) [Example 75, N-{4-[2-Cyclopentyl-1-(1H-pyrrolo[2,3-b]pyridin-2-yl)-ethyl]-phenyl}-methanesulfonamide], 2.5 µM.
Same read-out and setting: for `CS(=O)(=O)c1ccc(C(O)(CC2CCC2)c2cc3cccnc3[nH]2)cc1C(F)(F)F` (stereo not drawn) [Example 76, 2-Cyclobutyl-1-(4-methanesulfonyl-3-trifluoromethyl-phenyl)-1-(1H-pyrrolo[2,3-b]pyridin-2-yl)-ethanol] the value was 14.9 µM.
Consider `CS(=O)(=O)c1ccc(C(CC2CCC2)c2cc3cccnc3[nH]2)cc1C(F)(F)F` (stereo not drawn) [Example 77, 2-[2-Cyclobutyl-1-(4-methanesulfonyl-3-trifluoromethyl-phenyl)-ethyl]-1H-pyrrolo[2,3-b]pyridine], for which the SC1.5 was 0.692 µM.
Still for that read-out and setting: for `CC(=O)c1ccc(C(CC2CCCC2)c2cc3cccnc3[nH]2)cc1` (stereo not drawn) [Example 80, 1-{4-[2-Cyclopentyl-1-(1H-pyrrolo[2,3-b]pyridin-2-yl)-ethyl]-phenyl}-ethanone] the value was 2.6 µM; for `CC(C)(O)c1ccc(C(CC2CCCC2)c2cc3cccnc3[nH]2)cc1` (stereo not drawn) [Example 81, 2-{4-[2-Cyclopentyl-1-(1H-pyrrolo[2,3-b]pyridin-2-yl)-ethyl]-phenyl}-propan-2-ol], 2.3 µM; for `CC(C)C(C)(O)c1ccc(C(CC2CCCC2)c2cc3cccnc3[nH]2)cc1` (stereo not drawn) [Example 85, 2-{4-[2-Cyclopentyl-1-(1H-pyrrolo[2,3-b]pyridin-2-yl)-ethyl]-phenyl}-3-methyl-butan-2-ol], 23.6 µM.
